As a reminder, the EC50 is the concentration giving half of the maximal effect.

Read-outs that look alike come from different tables or passages of the source.

Data on two compounds can be found in paper PMC7003846, “Effects of the ventilatory stimulant, doxapram on human TASK‐3 (KCNK9, K2P9.1) channels and TASK‐1 (KCNK3, K2P3.1) channels” (Acta Physiologica (Oxford, England), 2019).

For assay [1] the following is noted: opioid challenged rats, intravenous; cited from earlier work.
A further assay has as its target T1, human TASK-3 (Homo sapiens, UniProt Q9NPC2).
T1 construct: expressed in transfected cells; host or cells: tsA201 (modified HEK293), transient transfection, pcDNA3.1+
The assay is described as follows: Whole-cell patch clamp on tsA201 cells expressing cloned human TASK-3. It counts as cell-based. The following applies: for inhibition of human TASK-3 current: acute application; for EC50: tsA201 cells, whole-cell patch clamp, room temperature, read-out: EC50, inhibition of human TASK-3 current. As to the method:
(§1) Murine (mur) wild‐type (WT) TASK‐1 (KCNK3, Genbank^TM DQ185133) and WT murTASK‐3 (KCNK9, Genbank^TM AH009585.2) cDNA were cloned into pCS2^+ vector and were a kind gift from William Wisden (Imperial College, UK). Human WT TASK‐1 (Genbank^TM AF006823.1), WT TASK‐3 (Genbank^TM AF212829) and WT TASK‐2 (KCNK5, Genbank^TM AF084830.1) cDNA’s, were cloned into pcDNA3.1^+ vector (Invitrogen) and were a kind gift from Helen Meadows (GlaxoSmithKline).
(§2) All experiments were performed using a modified human embryonic kidney 293 cell line, tsA201 (ECACC; Sigma‐Aldrich), prepared and maintained as previously described.54
(§3) For the electrophysiological experiments, cells were transiently transfected using a modified calcium phosphate protocol, following a process as previously described.54 Vectors cloned with the gene of interest and a similar vector encoding the cDNA for GFP were added to each well at a concentration of 0.5 µg per well, with the exception being for murTASK‐3, where 0.125 µg per well was used.
(§4) Currents were recorded from tsA201 cells transiently transfected with the channel of interest using whole‐cell patch clamp in a voltage clamp configuration and a step‐ramp voltage protocol as previously described.54 Briefly, all experiments were conducted at room temperature (20‐24°C) using an external solution composed of 145 mM of NaCl, 2.5 mM of KCL, 3 mM of MgCl2, 1 mM of CaCl2 and 10 mM of HEPES (pH 7.4, using NaOH) and an intracellular pipette solution composed of 150 mM of KCL, 3 mM of MgCl2, 5 mM of EGTA and 10 mM of HEPES (pH adjusted to 7.4 with KOH). External solution and modulatory compounds were superfused at a rate of 4‐5 mL min^−1. Currents were recorded using an Axopatch 1D patch clamp amplifier (Molecular Devices), filtered at 0.3 kHz, digitized at 1 kHz.
(§5) For analysis of outward current, we measured the current difference between the −80 and −40 mV. The current‐voltage graphs were obtained from the ramp change in voltage between −120 and +20 mV. For each cell, the current amplitude (pA) was normalized to the cell capacitance (pF). The currents obtained were analysed using pCLAMP 10.2 software (Molecular Devices), Microsoft Excel and GraphPad Prism 6 or 7 software. Data were expressed as the mean ± 95% Confidence Intervals (CI), and n represents the number of individual cells. For EC50 calculations, concentration‐response curves were fitted using the Hill equation. Statistical analysis used were one‐way ANOVA with a post‐hoc Dunnett's test or an unpaired/paired Student's t test. Data were considered statistically different if P < .05. The data and statistical analysis comply with the recommendations on experimental design and analysis in pharmacology.55
A general note: Patch clamp records ionic current or voltage across a cell membrane.

Another assay deals with T2, human TASK-1 (Homo sapiens, UniProt O14649).
T2 construct: expressed in transfected cells; host or cells: tsA201 (modified HEK293), transient transfection, pcDNA3.1+
In words: Whole-cell patch clamp on tsA201 cells expressing cloned human TASK-1. It counts as cell-based. The following applies: for inhibition of human TASK-1 current: acute application; for EC50: tsA201 cells, whole-cell patch clamp, room temperature, read-out: EC50, inhibition of human TASK-1 current. Here is the method:
as §1, §2, §3, §4, §5

For assay [2] the following is noted: opioid challenged cynomolgus monkeys, intravenous; cited from earlier work.
A further assay deals with T3, murTASK-1 (Mus musculus, UniProt O35111).
T3 construct: expressed in transfected cells; host or cells: tsA201 (modified HEK293), transient transfection, pCS2+
The assay is described as follows: Whole-cell patch clamp on tsA201 cells expressing cloned mouse TASK-1. The class given is cell-based. The settings on record: 10 µM, acute application. Here is the method: as §1, §2, §3, §4, §5

Another assay has as its target T4, murTASK-3 (Mus musculus, UniProt Q3LS21).
T4 construct: expressed in transfected cells; host or cells: tsA201 (modified HEK293), transient transfection, pCS2+
In words: Whole-cell patch clamp on tsA201 cells expressing cloned mouse TASK-3. The settings on record: 10 µM, acute application. It counts as cell-based. As to the method: as §1, §2, §3, §4, §5

T1 sequence (Q9NPC2 whole entry): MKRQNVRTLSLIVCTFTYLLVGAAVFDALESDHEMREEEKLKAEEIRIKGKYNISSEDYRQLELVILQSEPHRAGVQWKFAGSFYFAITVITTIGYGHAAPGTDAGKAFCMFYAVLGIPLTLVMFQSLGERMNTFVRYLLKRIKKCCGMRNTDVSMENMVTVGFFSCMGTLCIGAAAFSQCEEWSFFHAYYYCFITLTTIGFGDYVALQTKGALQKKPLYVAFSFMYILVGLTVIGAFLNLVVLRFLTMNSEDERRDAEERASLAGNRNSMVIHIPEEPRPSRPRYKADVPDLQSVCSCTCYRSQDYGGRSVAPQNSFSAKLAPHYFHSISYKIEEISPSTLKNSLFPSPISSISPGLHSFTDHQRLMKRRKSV
T2 sequence (O14649 whole entry): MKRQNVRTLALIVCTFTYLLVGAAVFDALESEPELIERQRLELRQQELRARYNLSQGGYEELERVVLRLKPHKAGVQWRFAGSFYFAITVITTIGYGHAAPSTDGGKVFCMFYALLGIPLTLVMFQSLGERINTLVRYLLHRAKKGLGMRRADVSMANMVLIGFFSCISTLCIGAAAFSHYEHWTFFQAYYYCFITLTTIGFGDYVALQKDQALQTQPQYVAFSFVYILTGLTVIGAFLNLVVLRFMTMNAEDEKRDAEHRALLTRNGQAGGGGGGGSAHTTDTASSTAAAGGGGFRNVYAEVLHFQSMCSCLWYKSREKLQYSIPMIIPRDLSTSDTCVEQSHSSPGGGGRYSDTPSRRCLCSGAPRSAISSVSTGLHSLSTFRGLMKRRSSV
T4 sequence (Q3LS21 whole entry): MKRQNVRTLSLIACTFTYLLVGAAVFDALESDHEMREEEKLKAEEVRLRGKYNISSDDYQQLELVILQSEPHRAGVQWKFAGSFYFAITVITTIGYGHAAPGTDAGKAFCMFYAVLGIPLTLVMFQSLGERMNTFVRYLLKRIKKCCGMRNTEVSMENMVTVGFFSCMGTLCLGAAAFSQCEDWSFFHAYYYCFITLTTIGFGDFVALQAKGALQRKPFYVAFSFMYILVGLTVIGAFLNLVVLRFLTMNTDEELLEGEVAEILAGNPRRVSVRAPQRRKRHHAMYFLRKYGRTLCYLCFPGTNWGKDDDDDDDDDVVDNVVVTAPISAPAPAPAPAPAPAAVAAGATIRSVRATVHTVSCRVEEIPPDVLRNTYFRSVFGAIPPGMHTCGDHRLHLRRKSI
T3 sequence (O35111 whole entry): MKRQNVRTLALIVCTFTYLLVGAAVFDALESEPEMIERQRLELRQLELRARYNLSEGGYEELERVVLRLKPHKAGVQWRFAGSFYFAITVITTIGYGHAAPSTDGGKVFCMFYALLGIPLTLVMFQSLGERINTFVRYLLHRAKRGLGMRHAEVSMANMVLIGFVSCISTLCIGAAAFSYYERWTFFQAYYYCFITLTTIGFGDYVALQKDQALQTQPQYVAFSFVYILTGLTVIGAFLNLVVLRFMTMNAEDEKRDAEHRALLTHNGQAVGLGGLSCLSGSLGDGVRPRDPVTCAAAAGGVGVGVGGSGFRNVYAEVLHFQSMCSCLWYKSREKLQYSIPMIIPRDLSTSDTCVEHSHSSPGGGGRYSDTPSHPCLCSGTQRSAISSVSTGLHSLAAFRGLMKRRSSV

Consider `CCN1CC(CCN2CCOCC2)C(c2ccccc2)(c2ccccc2)C1=O` (stereo not shown) [GAL‐053], for which the “effect on minute volume” value in assay [1] and in assay [2] was “had no effect” in each case. Also, the “inhibition of human TASK-3 current” value is recorded as 8% on human TASK-3 (10 µM, WT); 35% against human TASK-3 (100 µM, WT); 50% on human TASK-3 (300 µM). Also, the figures for the EC50 on human TASK-3 and on human TASK-1 were about 286 µM and about 336 µM, respectively. Further, the “inhibition of human TASK-1 current” value was 3% against human TASK-1 (10 µM), 24% at human TASK-1 (100 µM) and 47% on human TASK-1 (300 µM).

Take `CCN1CC(CCN2CCOCC2)C(c2ccccc2)(c2ccccc2)C1=O` (stereo not shown) [GAL‐054]: the “effect on minute volume” value in assay [1] and in assay [2] was “dose‐dependently increased minute volume” each time. Further, the “inhibition of human TASK-3 current” value on human TASK-3 (1 µM) was 43%; against human TASK-3 (3 µM), 66%; against human TASK-3 (10 µM, WT), 79%. Also, the EC50 on human TASK-3 is about 1.4 µM; on human TASK-1 it was about 1.6 µM. Besides, the “current inhibition of murTASK-1” value at murTASK-1 was 63%. Also, the entries for the “inhibition of human TASK-1 current” value on human TASK-1 (1 µM), on human TASK-1 (3 µM) and on human TASK-1 (10 µM) were 45%, 54% and 75%, respectively. Besides, on murTASK-3, the “current inhibition of murTASK-3” value is reported as 33%.
